Assay results: ChEMBL document CHEMBL5576038, “Design of a novel long-acting dual GLP-1/GIP receptor agonist” (Bioorg Med Chem, 2024)
Active and inactive are the calls of the source. No cut-off for these calls is given here. Where a SMILES comes first, the peptide text is derived from it. [ ]: non-standard residue; d: D form. The star is where a group is joined. X1 = N[C@@H](CCCCNC(=O)CC[C@H](NC(=O)CCCCCCCCCCCCCCCCCCC(=O)O)C(=O)O)C(=O)NCCCC[C@H](N)C(=O)N[C@@H](CCCCNC(=O)C*)C(=O)O; X3 = O=C(O)CCCCCCCCCCCCCCCCC(=O)NCCOCCOCC(=O)N[C@@H](CCC(=O)N[C@@H](CCC(=O)N[C@@H](CCCCNC(=O)C*)C(=O)O)C(=O)O)C(=O)O; X2 = O=C(O)CCCCCCCCCCCCCCCCC(=O)NCCOCCOCC(=O)N[C@@H](CCC(=O)N[C@H](CCC(=O)N[C@H](CCCCNC(=O)C*)C(=O)O)C(=O)O)C(=O)O; Aib = CC(C)(N)C(=O)O

Columns and labels:
Mus musculus [1] = assay: Increase in body weight in male ICR mouse at 30 nmol/kg, sc measured after 2 days; format: functional, organism-based; conditions: time 2.0 day
[2] = target: T1, Gastric inhibitory polypeptide receptor (Homo sapiens, UniProt P48546); assay: Agonist activity at human GIPR expressed in CHO cells assessed as increase in cAMP production incubated for 30 mins by Eu-cAMP tracer based microplate reader analysis; format: functional, cell-based
T1 sequence (P48546 whole entry): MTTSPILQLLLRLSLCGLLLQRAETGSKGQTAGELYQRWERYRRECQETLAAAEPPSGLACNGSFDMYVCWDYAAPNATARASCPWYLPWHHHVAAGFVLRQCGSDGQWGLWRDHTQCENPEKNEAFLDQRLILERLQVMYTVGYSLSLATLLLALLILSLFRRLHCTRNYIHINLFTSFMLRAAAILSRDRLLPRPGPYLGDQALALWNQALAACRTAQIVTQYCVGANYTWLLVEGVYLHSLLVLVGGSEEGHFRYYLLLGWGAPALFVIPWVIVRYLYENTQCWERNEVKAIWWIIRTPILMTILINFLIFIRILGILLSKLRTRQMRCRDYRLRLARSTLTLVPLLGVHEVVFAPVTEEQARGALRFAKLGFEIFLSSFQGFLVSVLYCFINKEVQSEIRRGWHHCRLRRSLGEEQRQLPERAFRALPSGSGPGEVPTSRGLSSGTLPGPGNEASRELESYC

[3] = target: Glucagon-like peptide 1 receptor (Homo sapiens, UniProt P43220); assay: Agonist activity at human GLP-1R expressed in CHO cells assessed as increase in cAMP production incubated for 30 mins by Eu-cAMP tracer based microplate reader analysis; format: functional, cell-based
Chain of Glucagon-like peptide 1 receptor (P43220 whole entry): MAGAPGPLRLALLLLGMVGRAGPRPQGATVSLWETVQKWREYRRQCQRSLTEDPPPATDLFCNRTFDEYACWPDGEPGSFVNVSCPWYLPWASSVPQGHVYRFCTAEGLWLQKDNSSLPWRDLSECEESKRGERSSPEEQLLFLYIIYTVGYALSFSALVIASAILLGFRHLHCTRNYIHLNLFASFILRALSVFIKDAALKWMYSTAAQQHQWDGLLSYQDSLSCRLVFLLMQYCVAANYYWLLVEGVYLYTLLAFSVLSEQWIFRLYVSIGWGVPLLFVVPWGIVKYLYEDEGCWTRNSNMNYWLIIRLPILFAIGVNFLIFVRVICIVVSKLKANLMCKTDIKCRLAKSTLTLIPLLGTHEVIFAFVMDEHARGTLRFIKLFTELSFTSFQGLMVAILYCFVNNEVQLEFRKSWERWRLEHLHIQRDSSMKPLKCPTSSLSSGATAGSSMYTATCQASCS

Mus musculus [4] = assay: Glucose-lowering effect in male ICR mouse assessed as reduction in plasma glucose AUC (0 to 72 hrs) at 30 nmol/kg, sc pretreated for 71 hrs followed by […] administration and measured after 60 mins by oral glucose tolerance test; format: functional, organism-based
[5] = Elimination half life in Beagle dog at 10 nmol/kg, sc administered as single dose and measured upto 168 hrs by LC-MS/MS analysis; format: ADME, organism-based, Canis lupus familiaris; conditions: in vivo
Mus musculus [6] = assay: Anti-obesity activity in male C57/B16 mouse model of diet-induced obesity assessed as reduction in body weight at 10 nmol/kg, sc administered every 3 days for 46 days and measured every 3 days relative to control; format: functional; design: scale not given: the % may be the effect or the level left
[7] = AUC (0 to 168 hrs) in Beagle dog at 10 nmol/kg, sc administered as single dose and measured upto 168 hrs by LC-MS/MS analysis; format: ADME, organism-based, Canis lupus familiaris; conditions: in vivo
Mus musculus [8] = assay: Reduction in body weight in male ICR mouse at 30 nmol/kg, sc measured for 4 days; format: functional, organism-based; conditions: time 4.0 day
Mus musculus [9] = assay: Hypoglycemic effect in male db/db mouse model assessed as reduction in HbA1c level at 30 nmol/kg, sc administered every 3 days for 60 days and measured on day 18, 31, 37, 52, 58 and 60 by auto-chemistry analyzer; format: functional, organism-based; conditions: time 60.0 day
Mus musculus [10] = assay: Hypoglycemic effect in male db/db mouse model assessed as reduction in food intake at 30 nmol/kg, sc administered every 3 days for 60 days and measured every 3 days; format: functional, organism-based; conditions: time 60.0 day
[11] = Tmax in Beagle dog at 10 nmol/kg, sc administered as single dose and measured upto 168 hrs by LC-MS/MS analysis; format: ADME, organism-based, Canis lupus familiaris; conditions: in vivo
Mus musculus [12] = assay: Hypoglycemic effect in male db/db mouse model assessed as reduction in body weight at 30 nmol/kg, sc administered every 3 days for 60 days and measured every 3 days; format: functional, organism-based; conditions: time 60.0 day
[13] = Cmax in Beagle dog at 10 nmol/kg, sc administered as single dose and measured upto 168 hrs by LC-MS/MS analysis; format: ADME, organism-based, Canis lupus familiaris; conditions: in vivo
Mus musculus [14] = assay: Hypoglycemic effect in male db/db mouse model assessed as blood glucose level at 30 nmol/kg, sc administered every 3 days for 31 days and measured 72 hrs post each dose; format: functional, organism-based; conditions: time 31.0 day
Mus musculus [15] = assay: Anti-obesity activity in male C57/B16 mouse model of diet-induced obesity assessed as reduction in body weight at 30 nmol/kg, sc administered every 3 days for 46 days and measured every 3 days relative to control; format: functional, organism-based; design: scale not given: the % may be the effect or the level left; conditions: time 46.0 day

| Compound | Activity (Mus musculus [1]) | EC50 [2] | EC50 [3] | Activity (Mus musculus [4]) | Activity (Mus musculus [8]) | Activity (Mus musculus [9]) | Activity (Mus musculus [12]) | Activity (Mus musculus [14]) | also measured |
| --- | --- | --- | --- | --- | --- | --- | --- | --- | --- |
| CC(C)C[C@H](NC(=O)[C@H](CC(C)C)NC(=O)[C@H](Cc1c[nH]c2ccccc12)NC(=O)[C@H](CCC(N)=O)NC(=O)[C@@H](NC(=O)[C@H](Cc1ccccc1)NC(=O)[C@H](CC(C)C)NC(=O)[C@H](CCCCN)NC(=O)[C@H](C)NC(=O)[C@H](C)NC(=O)[C@H](CCC(N)=O)NC(=O)[C@H](CCCCN)NC(=O)[C@H](CCC(=O)O)NC(=O)[C@H](CC(C)C)NC(=O)[C@H](CSCC(=O)NCCCC[C@H](NC(=O)CC[C@H](NC(=O)CC[C@H](NC(=O)COCCOCCNC(=O)CCCCCCCCCCCCCCCCC(=O)O)C(=O)O)C(=O)O)C(=O)O)NC(=O)[C@H](Cc1ccc(O)cc1)NC(=O)[C@H](CO)NC(=O)[C@H](Cc1ccc(O)cc1)NC(=O)[C@H](CC(=O)O)NC(=O)[C@H](CO)NC(=O)[C@@H](NC(=O)[C@H](Cc1ccccc1)NC(=O)[C@@H](NC(=O)CNC(=O)[C@H](CCC(=O)O)NC(=O)C(C)(C)NC(=O)[C@@H](N)Cc1ccc(O)cc1)[C@@H](C)O)[C@@H](C)O)C(C)C)C(=O)N[C@@H](C)C(=O)NCC(=O)NCC(=O)N1CCC[C@H]1C(=O)N[C@@H](CO)C(=O)N[C@@H](CO)C(=O)NCC(=O)N[C@@H](C)C(=O)N1CCC[C@H]1C(=O)N1CCC[C@H]1C(=O)N1CCC[C@H]1C(=O)N[C@@H](CO)C(N)=O (H-Y[Aib]EGTFTSDYSYC(X3)LEKQAAKLFVQWLLAGGPSSGAPPPS-NH2) | Active | 0.14 nM | 0.29 nM |  |  |  |  |  |  |
| CC(C)C[C@H](NC(=O)[C@H](CC(C)C)NC(=O)[C@H](Cc1c[nH]c2ccccc12)NC(=O)[C@H](CCC(N)=O)NC(=O)[C@@H](NC(=O)[C@H](Cc1ccccc1)NC(=O)[C@H](CC(C)C)NC(=O)[C@H](CCCCN)NC(=O)[C@H](C)NC(=O)[C@H](C)NC(=O)[C@H](CCC(N)=O)NC(=O)[C@H](CSCC(=O)NCCCC[C@@H](NC(=O)CC[C@@H](NC(=O)CC[C@H](NC(=O)COCCOCCNC(=O)CCCCCCCCCCCCCCCCC(=O)O)C(=O)O)C(=O)O)C(=O)O)NC(=O)[C@H](CCC(=O)O)NC(=O)[C@H](CC(C)C)NC(=O)[C@H](Cc1ccc(O)cc1)NC(=O)[C@H](Cc1ccc(O)cc1)NC(=O)[C@H](CO)NC(=O)[C@H](Cc1ccc(O)cc1)NC(=O)[C@H](CC(=O)O)NC(=O)[C@H](CO)NC(=O)[C@@H](NC(=O)[C@H](Cc1ccccc1)NC(=O)[C@@H](NC(=O)CNC(=O)[C@H](CCC(=O)O)NC(=O)C(C)(C)NC(=O)[C@@H](N)Cc1ccc(O)cc1)[C@@H](C)O)[C@@H](C)O)C(C)C)C(=O)N[C@@H](C)C(=O)NCC(=O)NCC(=O)N1CCC[C@H]1C(=O)N[C@@H](CO)C(=O)N[C@@H](CO)C(=O)NCC(=O)N[C@@H](C)C(=O)N1CCC[C@H]1C(=O)N1CCC[C@H]1C(=O)N1CCC[C@H]1C(=O)N[C@@H](CO)C(N)=O (H-Y[Aib]EGTFTSDYSYYLEC(X2)QAAKLFVQWLLAGGPSSGAPPPS-NH2) | Active |  |  | Active |  |  |  |  | EC50 ([2]; cho): 0.11 nM; EC50 ([3]; cho): 0.14 nM |
| CC(C)C[C@H](NC(=O)[C@H](CC(C)C)NC(=O)[C@H](Cc1c[nH]c2ccccc12)NC(=O)[C@H](CCC(N)=O)NC(=O)[C@@H](NC(=O)[C@H](Cc1ccccc1)NC(=O)[C@H](CC(C)C)NC(=O)[C@H](CSCC(=O)NCCCC[C@H](NC(=O)[C@@H](N)CCCCNC(=O)[C@@H](N)CCCCNC(=O)CC[C@H](NC(=O)CCCCCCCCCCCCCCCCCCC(=O)O)C(=O)O)C(=O)O)NC(=O)[C@H](C)NC(=O)[C@H](C)NC(=O)[C@H](CCC(N)=O)NC(=O)[C@H](CCCCN)NC(=O)[C@H](CCC(=O)O)NC(=O)[C@H](CC(C)C)NC(=O)[C@H](Cc1ccc(O)cc1)NC(=O)[C@H](Cc1ccc(O)cc1)NC(=O)[C@H](CO)NC(=O)[C@H](Cc1ccc(O)cc1)NC(=O)[C@H](CC(=O)O)NC(=O)[C@H](CO)NC(=O)[C@@H](NC(=O)[C@H](Cc1ccccc1)NC(=O)[C@@H](NC(=O)CNC(=O)[C@H](CCC(=O)O)NC(=O)C(C)(C)NC(=O)[C@@H](N)Cc1ccc(O)cc1)[C@@H](C)O)[C@@H](C)O)C(C)C)C(=O)N[C@@H](C)C(=O)NCC(=O)NCC(=O)N1CCC[C@H]1C(=O)N[C@@H](CO)C(=O)N[C@@H](CO)C(=O)NCC(=O)N[C@@H](C)C(=O)N1CCC[C@H]1C(=O)N1CCC[C@H]1C(=O)N1CCC[C@H]1C(=O)N[C@@H](CO)C(N)=O (H-Y[Aib]EGTFTSDYSYYLEKQAAC(X1)LFVQWLLAGGPSSGAPPPS-NH2) |  | 0.06 nM | 0.18 nM | Active | Active | Active | Active | Active | half-life ([5]; Beagle, read-out: beta t1/2 (converted)): 3.26 days; Activity (Mus musculus [6]; time 46 day): 21%; AUC(0-t) at 168 h ([7]; Beagle): 23700 ng·h/mL; Activity (Mus musculus [10]): Active; Tmax ([11]; Beagle, read-out: Tmax): 18.7 h; Cmax ([13]; Beagle, read-out: Cmax): 215 ng/mL |
| SEMAGLUTIDE |  |  |  |  |  | Active | inactive |  | Activity (Mus musculus [15]): 10% |
| TIRZEPATIDE [listing 1 of 2 here] |  |  |  |  |  |  |  |  | beta t1/2 ([5]; sc, 168 h): 93.8 h; AUC ([7]; sc, 168 h): 35123 ng·h/mL; Tmax ([11]; sc, 168 h): 14 h; Cmax ([13]; sc, 168 h): 344 ng/mL |
| TIRZEPATIDE [listing 2 of 2 here] |  |  |  |  | Active | Active | Active | Active | Activity (Mus musculus [6]; time 46.0 day): 21% |
